Laboratory results published in patent US20200147149A1, “COMPOSITIONS AND METHODS FOR THE MODULATION OF GUT SENSORY CELLS” (Duke University, priority 2017, published 2020).
Entries after “also recorded” stand apart in the source; their conditions may differ.

Assays:
iGluSnFR-HEK cells = iGluSnFR-HEK cells cultured alone, multiphoton imaging; assay type: cell-based; conditions: glutamate 100 μM
Method: HEK 293/17 cells (ATCC CRL-11268) were maintained in DMEM (Gibco 11965) supplemented with 10% FBS (Corning 35-010-CV), Glutamax, and non-essential amino acids (both Gibco). Cells were transfected with 1 ug plasmid pCMV(MinDis) iGluSnFR (Addgene 41732) using 1 ul Lipofectamine 2000 in Optimem (Gibco) in 24-well plates.
The 5.2 Kb iGluSnFR (pCMV(MinDis).iGluSnFR was a gift from Loren Looger; Addgene plasmid #41732) was moved to the zeocin resistant backbone of Addgene #51694 (DRH296: FCK-Optopatch2 was a gift from Adam Cohen) as a NdeI+XhoI fragment. The resulting plasmid (pMEK8) was transfected into HEK 293/17 cells (ATCC CRL-11268) using 1 μl Lipofectamine 2000/ug DNA. Cells were maintained in DMEM (Gibco 11965) supplemented with 10% FBS (Corning 35-010-CV), Glutamax, non-essential amino acids (both Gibco) and 3 μl/ml zeocin ([…], Invitrogen).
CckCRE_tdTomato enteroendocrine cells were isolated as described above. Isolated cells were mixed with iGluSnFR-HEK cells at a ratio of 10:1, then plated on 1% Matrigel coated coverslips. Control iGluSnFR-HEK cells were plated alone. Cells were incubated for 12-18 hours before imaging. Coverslips were imaged using a multiphoton microscopy system (Bruker Ultima IV with a Chameleon Vision II tunable laser). Imaging frames were captured at 1.876 fps, using 920 nm light. Imaging series were analyzed using Fiji (ImageJ), and cell traces were plotted with Excel.

glutamate receptor = assay: Antagonist studies: glutamate receptor antagonists on vagal nerve firing rate response to sucrose or 473 nm laser; assay type: in vivo, mouse; conditions: sucrose-300 mM; for time to peak (speed) of vagal response to sucrose: after KA/AP3 (150 μg/kg kynurenic acid + 1 mg/kg AP-3) or KA 150 μg/kg alone, sucrose alone 92.8 seconds, 1 mg/kg
Method: Wild-type control (n=5-9), CckCRE_ChR2-tdTomato (n=6), CckCRE_Halorhodopsin-YFP (n=5), and Vglut1CRE_ChR2-YFP (n=6) mice were used for vagal recordings. Mice were anesthetized with 3 mg/g-mouse urethane 1 hour before surgery then with 0.5-1% isoflurane. A section of neck skin was removed between the jaw and clavicle. The thyroid was reflected bilaterally, and the carotid bundle was exposed using coarse dissection. The carotid nerve was separated from the vagus nerve using a curved blunt probe. Two platinum iridium wires (0.001″ diameter, PTFE coated, 10% Ir 90% Pt; Medwire by Sigmund Cohn Corp) were looped around the vagus nerve for recording. Mineral oil was used to insulate the vagus nerve from surrounding tissue. The small intestine was exposed by removing a section of skin and peritoneum. A 20 gauge gavage needle was surgically inserted through the stomach wall and into the duodenum. The gavage needle was sutured in place beyond the pyloric sphincter. Saline and stimulant tubes were connected to the gavage needle. For optogenetic experiments, a fiber optic cable (FT020, ThorLabs) was threaded through the gavage needle into the lumen of the duodenum. A perfusion exit incision was made 10 cm distal to the pyloric sphincter. During each recording, PBS was constantly perfused through the duodenum using a peristaltic pump (Cole-Parmer) at the lowest setting for a flow rate of ˜400 uL PBS per minute. Stimulation conditions were applied after recording 2 minutes of baseline activity. During whole nutrient stimulation conditions, PBS perfusion was continuous and 200 μL of ENSURE® was perfused through the second tube for 1 minute using a syringe pump. […] During CCK stimulation conditions, PBS perfusion was continuous, and 200 μL of 2.9 μM CCK octapeptide-sulfated (BaChem) was perfused through the second tube for 1 minute using a syringe pump (Fusion 200, Chemyx) for a final concentration of ˜870 nM CCK in PBS (10 μg/kg dose). […] Final stimulant concentrations were determined using the ratio of dilution and confirmed by osmolarity testing (Model 3320 Osmometer, Advanced Instruments Inc.). […]
Extracellular voltage was recorded from a pair of platinum iridium wires as described above. […] The raw data was analyzed using a spike sorting algorithm (MATLAB by MathWorks). Spikes were detected using simple threshold detection based on RMS noise. The firing rate was calculated using a Gaussian kernel smoothing algorithm (200-ms time scale).
Stimulation response was quantified as the maximum firing rate after stimulation (stimulant conditions) or during recording (baseline). […] Maximum firing rate was analyzed across genotype, stimulation condition, and their interaction term by ANOVA, followed by HSD post hoc testing (iMP by SAS Institute).

[1] = system: ionotropic glutamate receptor; assay: Patch-clamp of nodose neurons co-cultured with CckCRE_ChR2 cells, photo-stimulation and microperfusion of glutamate blocker; assay type: cell-based, mouse; conditions: kynurenic acid 3 mM, n=4 pairs
Method: The small intestines of CckGFP and CckCRE_ChR2-tdTomato mice were dissected and flushed twice with cold PBS. The intestine was cut open lengthwise and cut again into ˜1 cm pieces. Tissue pieces were incubated with 3 mM EDTA at 4° C. for 15 minutes then at 37° C. for 15 minutes. New cold PBS was added and villi and crypts were mechanically detached. Villi and crypts were spun down and further digested in Collagenase and Dispase. Cells were spun down and re-suspended in L-15 media with 5% FBS and DNase to prevent cell clumping. Cells were passed through a 70 μm then 40 μm cell strainer to isolate single cells. Then cells were sorted using Fluorescence Activated Cell sorting (BD FACSAria) selecting for GFP fluorescence cells. […]
Enteroendocrine cells and nodose neurons were co-cultured as described above. […] CCK-producing enteroendocrine cells were identified by GFP expression and neurons by their morphology and lack of fluorescence. […] At the resting membrane potential, cell properties such as input resistance, and spike threshold were determined using 200 ms steps from −40 pA to 100 pA in 20 pA increment. After that, baseline neuron activity was recorded in current-clamp or voltage-clamp for 5 min before exposure to glucose (20 mM) for 30-60 sec, followed by a wash with no glucose-containing extracellular solution. […] EPSC responses were recorded for 1 second after light stimulation. […]

[2] = system: intestinal CCK enteroendocrine cells; assay: Calcium imaging (GCaMP6s) of enteroendocrine cells in CckCRE_tdTomato intestinal organoids; assay type: cell-based, mouse; conditions: 10 mM sucrose; 40 mM KCl control; n=5
Method: For neurons, Phox2bCRE_GCaMP6s (n=3) nodose neurons were dissociated and plated. Nodose ganglia were dissected and digested in Liberase (Roche, 5401054001). Neurons were washed and filtered through a 70 μm cell strainer, then plated on 12 mm coverslips and placed in an incubator overnight. Cells were imaged 1-2 days later. Coverslips were placed in the recording chamber of a Zeiss Examiner Z1 and imaged with a Hamamatsu camera (Orca-flash4.0; C11440) using the Zeiss ZEN software package. For enteroendocrine cells, CckCRE_tdTomato organoids with transduced with ΔG-rabies-GCaMP6s. Organoids were imaged using multi photon microscopy 3-4 days after transduction. Imaging buffer (in mM: 140 NaCl, 5 KCl, 2 CaCl2, 2 MgCl2, 10 HEPES) was continuously perfused over the coverslips. […] Images were analyzed with Fiji ([…]), and cell traces were plotted with Matlab.

vagus nerve [3] = assay: Vagus nerve recording during intraluminal (duodenal) nutrient or CCK perfusion; assay type: in vivo, mouse; conditions: for time to maximum peak firing rate after the onset of the stimulus: CCK 870 nM or sucrose 300 mM intraluminal, FIG. 30C
Method: Wild-type control (n=5-9), CckCRE_ChR2-tdTomato (n=6), CckCRE_Halorhodopsin-YFP (n=5), and Vglut1CRE_ChR2-YFP (n=6) mice were used for vagal recordings. Mice were anesthetized with 3 mg/g-mouse urethane 1 hour before surgery then with 0.5-1% isoflurane. A section of neck skin was removed between the jaw and clavicle. The thyroid was reflected bilaterally, and the carotid bundle was exposed using coarse dissection. The carotid nerve was separated from the vagus nerve using a curved blunt probe. Two platinum iridium wires (0.001″ diameter, PTFE coated, 10% Ir 90% Pt; Medwire by Sigmund Cohn Corp) were looped around the vagus nerve for recording. Mineral oil was used to insulate the vagus nerve from surrounding tissue. The small intestine was exposed by removing a section of skin and peritoneum. A 20 gauge gavage needle was surgically inserted through the stomach wall and into the duodenum. The gavage needle was sutured in place beyond the pyloric sphincter. Saline and stimulant tubes were connected to the gavage needle. For optogenetic experiments, a fiber optic cable (FT020, ThorLabs) was threaded through the gavage needle into the lumen of the duodenum. A perfusion exit incision was made 10 cm distal to the pyloric sphincter. During each recording, PBS was constantly perfused through the duodenum using a peristaltic pump (Cole-Parmer) at the lowest setting for a flow rate of ˜400 uL PBS per minute. Stimulation conditions were applied after recording 2 minutes of baseline activity. During whole nutrient stimulation conditions, PBS perfusion was continuous and 200 μL of ENSURE® was perfused through the second tube for 1 minute using a syringe pump. […] During CCK stimulation conditions, PBS perfusion was continuous, and 200 μL of 2.9 μM CCK octapeptide-sulfated (BaChem) was perfused through the second tube for 1 minute using a syringe pump (Fusion 200, Chemyx) for a final concentration of ˜870 nM CCK in PBS (10 μg/kg dose). […] Final stimulant concentrations were determined using the ratio of dilution and confirmed by osmolarity testing (Model 3320 Osmometer, Advanced Instruments Inc.). During 473 nm laser stimulation conditions, PBS perfusion was continuous, and the laser was pulsed for 1 minute at 40 Hz, 4 volts peak voltage, 20% duty cycle (473 nm, 80 mW laser, RGBlase).
Extracellular voltage was recorded from a pair of platinum iridium wires as described above. A differential amplifier and bandpass filter (1000× gain, 300 Hz-5 kHz bandpass filter; A-M Systems LLC) was used and the signal was processed using a data acquisition board and software (20 kHz sampling rate; Signal Express, National Instruments Corp). The raw data was analyzed using a spike sorting algorithm (MATLAB by MathWorks). Spikes were detected using simple threshold detection based on RMS noise. The firing rate was calculated using a Gaussian kernel smoothing algorithm (200-ms time scale).
Stimulation response was quantified as the maximum firing rate after stimulation (stimulant conditions) or during recording (baseline). Each trial serves as its own control by normalizing the maximum firing rate to the average baseline firing rate (defined as the first two minutes of recording, prior to stimulation onset). Mice were excluded from analysis if no sucrose response was present throughout recording. Maximum firing rate was analyzed across genotype, stimulation condition, and their interaction term by ANOVA, followed by HSD post hoc testing (iMP by SAS Institute).

vagus nerve [4] = assay: as above; assay type: in vivo, mouse; conditions: sucrose 300 mM delivered intraperitoneally, wild-type mice

N[C@@H](CCC(=O)O)C(=O)O [glutamate, reference compound]
fluorescence response of iGluSnFR-HEK cells cultured alone (iGluSnFR-HEK cells): did respond; also recorded: causes an increase in fluorescence

O=C(O)c1cc(=O)c2ccccc2[nH]1 [kynurenic acid]
effect on maximum (peak) normalized vagal firing rate in response to sucrose (glutamate receptor; KA/AP3 = 150 μg/kg kynurenic acid + 1 mg/kg AP-3, or KA 150 μg/kg alone, wild-type mice): do not | time to peak (speed) of vagal response to sucrose (glutamate receptor): about 180 seconds | time to peak (speed) of vagal response to sucrose (glutamate receptor; listed as KA): 198 s | effect on rapid (first 60 seconds) vagal response to sucrose (glutamate receptor; kynurenic acid alone (150 μg/kg; dose range 1.5 μg/kg-1.5 mg/kg in FIG. 32), 1.5 mg/kg): suppressed; also recorded: attenuates rapid vagal response but not prolonged vagal response | effect on light (470/473 nm) evoked EPSCs in connected nodose neurons [1]: abolished | light evoked response after the blocker is washed away ([1]; wash): recovered

OC[C@H]1O[C@@](CO)(O[C@H]2O[C@H](CO)[C@@H](O)[C@H](O)[C@H]2O)[C@@H](O)[C@@H]1O [sucrose]
magnitude of the sugar response as percent fluorescence of the KCl response [2]: 72.4±10.6% | time to maximum peak firing rate after the onset of the stimulus (vagus nerve [3]; wild-type mice): about 60 s | vagal response (vagus nerve [3]; luminal sucrose 300 mM, CckCRE_Halo-YFP mice, no laser): elicited a vagal response | vagal firing rate (vagus nerve [3]; sucrose 100 mM-300 mM (300 mM in figures) perfused intraluminally, wild-type mice, vs baseline): significantly increased; also recorded: stimulate | time to peak of vagal response (vagus nerve [3]; sucrose-300 mM without antagonist, wild-type mice, average, FIG. 25D): 92.8 s | vagal activity (vagus nerve [3]; sucrose-300 mM, Vglut1CRE_ChR2 mice): stimulate vagal activity | vagal firing rate (vagus nerve [4]): not observed; also recorded: did not increase vagal firing rate

CCK8: CCK octapeptide-sulfated (BaChem) [reference compound]
time to maximum peak firing rate after the onset of the stimulus (vagus nerve [3]; wild-type mice): about 180 s | vagal firing rate (maximum) (vagus nerve [3]; CCK8 870 nM (10 μg/kg) infused into the intestinal lumen, wild-type mice): increased the vagal firing rate to a similar maximum reached by sucrose
